From ChEMBL document CHEMBL3045694, “Insecticidal activity and chemical composition of volatile oils from Hyptis martiusii Benth” (2003)

Legend:
Type in all cases: functional
[1] = test system: Aedes aegypti; assay: Larvicidal activity against third larval stage of Aedes aegypti assessed as mortality at 250 mg/L after 24 hr
[2] = test system: Aedes aegypti; assay: Larvicidal activity against third larval stage of Aedes aegypti assessed as mortality at 500 mg/L after 24 hr
[3] = test system: Aedes aegypti; assay: Larvicidal activity against third larval stage of Aedes aegypti assessed as mortality at 100 mg/L after 24 hr
[4] = test system: Aedes aegypti; assay: Larvicidal activity against third larval stage of Aedes aegypti assessed as mortality at 50 mg/L after 24 hr
[5] = test system: Bemisia argentifolii; assay: Insecticidal activity against adult Bemisia argentifolii reared on compound-treated melon leaves assessed as mortality at 1000 mg/L applied as spray after 72 hr
[6] = test system: Bemisia argentifolii; assay: Insecticidal activity against adult Bemisia argentifolii reared on compound-treated melon leaves assessed as layed eggs at 1000 mg/L applied as spray after 72 hr
[7] = test system: Aedes aegypti; assay: Larvicidal activity against third larval stage of Aedes aegypti assessed as mortality at 25 mg/L after 24 hr

## CC12CCC(CC1)C(C)(C)O2 [EUCALYPTOL]
[1]
  mortality at 250 µg/mL: 100%
[2]
  mortality at 500 µg/mL: 100%
[3]
  mortality at 100 µg/mL: 100%
[4]
  mortality at 50 µg/mL: 53%
[5]
  mortality at 1000 µg/mL: 91.2%
[6]
  Activity: 9.2%
[7]
  mortality at 25 µg/mL: 10%
